Calls of active or inactive are those of the source. No cut-off for these calls is given here.
What was measured:
DLD-1 = assay: Induction of DR5 promoter activity in SacI gene expressing human DLD1 cells at 17.5 uM after 24 hrs by luminescence assay; type: functional
AGS [1] = assay: Induction of apoptosis in TRAIL-resistant human AGS cells assessed as late apoptotic cells at 50 uM after 24 hrs using annexin-V-FITC/propidium iodide staining by flow cytometry; type: functional
AGS [2] = assay: Sensitization of TRAIL-induced apoptosis in TRAIL-resistant human AGS cells assessed as early apoptotic cells at 50 uM after 24 hrs using annexin-V-FITC/propidium iodide staining by flow cytometry; type: functional
AGS [3] = assay: Sensitization of TRAIL-induced apoptosis in TRAIL-resistant human AGS cells assessed as early apoptotic cells at 40 uM after 24 hrs using annexin-V-FITC/propidium iodide staining by flow cytometry; type: functional
AGS [4] = assay: Sensitization of TRAIL-induced apoptosis in TRAIL-resistant human AGS cells assessed as late apoptotic cells at 50 uM after 24 hrs using annexin-V-FITC/propidium iodide staining by flow cytometry; type: functional
AGS [5] = assay: Induction of DR5 protein expression in TRAIL-resistant human AGS cells after 24 hrs by Western blot analysis; type: functional, cell-based
AGS [6] = assay: Induction of apoptosis in TRAIL-resistant human AGS cells assessed as late apoptotic cells at 40 uM after 24 hrs using annexin-V-FITC/propidium iodide staining by flow cytometry; type: functional
AGS [7] = assay: Induction of TRAIL-induced apoptosis in TRAIL-resistant human AGS cells assessed as increase in caspase 8 activity after 12 hrs by luminescence assay; type: functional, cell-based
AGS [8] = assay: Induction of apoptosis in TRAIL-resistant human AGS cells assessed as late apoptotic cells at 60 uM after 24 hrs using annexin-V-FITC/propidium iodide staining by flow cytometry; type: functional
AGS [9] = assay: Induction of apoptosis in TRAIL-resistant human AGS cells assessed as early apoptotic cells at 40 uM after 24 hrs using annexin-V-FITC/propidium iodide staining by flow cytometry; type: functional
AGS [10] = assay: Sensitization of TRAIL-induced apoptosis in TRAIL-resistant human AGS cells assessed as early apoptotic cells at 60 uM after 24 hrs using annexin-V-FITC/propidium iodide staining by flow cytometry; type: functional
AGS [11] = assay: Sensitization of TRAIL-induced apoptosis in TRAIL-resistant human AGS cells assessed as late apoptotic cells at 60 uM after 24 hrs using annexin-V-FITC/propidium iodide staining assay; type: functional
AGS [12] = assay: Induction of TRAIL-induced apoptosis in TRAIL-resistant human AGS cells assessed as increase in caspase 3/7 activity after 24 hrs by luminescence assay; type: functional, cell-based
AGS [13] = assay: Induction of apoptosis in TRAIL-resistant human AGS cells assessed as early apoptotic cells at 50 uM after 24 hrs using annexin-V-FITC/propidium iodide staining by flow cytometry; type: functional
AGS [14] = assay: Induction of apoptosis in TRAIL-resistant human AGS cells assessed as early apoptotic cells at 60 uM after 24 hrs using annexin-V-FITC/propidium iodide staining by flow cytometry; type: functional
AGS [15] = assay: Induction of DR5 mRNA expression in TRAIL-resistant human AGS cells by RT-PCR; type: functional, cell-based
AGS [16] = assay: Sensitization of TRAIL-induced apoptosis in TRAIL-resistant human AGS cells assessed as increase in DR5 expression; type: functional, cell-based
AGS [17] = assay: Sensitization of TRAIL-induced apoptosis in TRAIL-resistant human AGS cells assessed as accumulation at sub-G1 phase at 60 uM after 24 hrs using annexin-V-FITC/propidium iodide staining by flow cytometry in presence of DR5/Fc chimeric protein; type: functional, cell-based
AGS [18] = assay: Sensitization of TRAIL-induced apoptosis in TRAIL-resistant human AGS cells assessed as late apoptotic cells at 40 uM after 24 hrs using annexin-V-FITC/propidium iodide staining by flow cytometry; type: functional

SMILES	Activity (DLD-1)	Activity (AGS [1]) [%]	Activity (AGS [2]) [%]	Activity (AGS [3]) [%]	Activity (AGS [4]) [%]	Activity (AGS [5])	Activity (AGS [6]) [%]	Activity (AGS [7])	Activity (AGS [8]) [%]	Activity (AGS [9]) [%]	Activity (AGS [10]) [%]	Activity (AGS [11]) [%]	Activity (AGS [12])	Activity (AGS [13]) [%]	Activity (AGS [14]) [%]	Activity (AGS [15])	Activity (AGS [16])	Activity (AGS [17])	Activity (AGS [18]) [%]
COc1ccc(-c2coc3cc(O)ccc3c2=O)c(O)c1 [XENOGNOSIN B]	2.5	–	–	–	–	–	–	–	–	–	–	–	–	–	–	–	–	–	–
COc1cc(-c2coc3c4c(cc(O)c3c2=O)OC(C)(C)C=C4)c(OC)cc1O	–	3.9	16.3	12.1	19.5	Dose-dependent effect	5.6	Dose-dependent effect	6.9	9.6	23.4	44.1	Dose-dependent effect	15.2	17.4	Dose-dependent effect	Active	inactive	12.9

Reference: ChEMBL document CHEMBL1143342, “Death receptor 5 targeting activity-guided isolation of isoflavones from Millettia brandisiana and Ardisia colorata and evaluation of ability to induce TRAIL-mediated apoptosis” (2009)
